pIC50: −log10 of the molar value.
Test system: 388556-164-R-J1-PDC complex spheroid viability
Test: Anticancer human tumor 388556-164-R-J1-PDC patient-derived colon adenocarcinoma cell line growth inhibition [RAS]
Details: for pIC50: curve of first compound; for viability, T/C: stronger effect = lower value
Summary of the method: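 Multi-cell-type spheroids: tumor cells plus HUVEC endothelial cells and mesenchymal stem cells. RAS-pathway inhibitors were combined with targeted agents, each dosed in half-log steps down from clinical Cmax, or from 10 microM when Cmax was unknown.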
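Also: spheroids exposed to compound for 7 days before readout.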
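For viability, T/C in this document: 100% = DMSO vehicle control luminescence.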

## CC(Nc1ccc2c(c1)OCCn1cc(N3C(=O)OCC3C(F)F)nc1-2)C(N)=O (centres undefined) + CCn1c(-c2cccnc2C(C)OC)c2c3cc(ccc31)N1CCOC(CC(NC(=O)C(C(C)C)N(C)C(=O)C3(F)CCN(C(=O)C#CC(C)(C)N(C)C)CC3)C(=O)N3CCCC(N3)C(=O)OCC(C)(C)C2)C1
Second compound 0.000949 µM
  pIC50: < 5.00
Second compound 0.003 µM
  pIC50: < 5.00
Second compound 0.00949 µM
  pIC50: 5.02
Second compound 0.03 µM
  pIC50: 5.11
Second compound 0.0949 µM
  pIC50: < 5.00
Second compound 0.3 µM
  pIC50: 5.11
Second compound 0.000949 µM, first compound 0.0316 µM
  viability, T/C: 96.7%
Second compound 0.000949 µM, first compound 0.1 µM
  viability, T/C: 83.7%
Second compound 0.000949 µM, first compound 0.316 µM
  viability, T/C: 73%
Second compound 0.000949 µM, first compound 1 µM
  viability, T/C: 79.4%
Second compound 0.000949 µM, first compound 3.16 µM
  viability, T/C: 59.8%
Second compound 0.000949 µM, first compound 10 µM
  viability, T/C: 50.9%
Second compound 0.003 µM, first compound 0.0316 µM
  viability, T/C: 102%
Second compound 0.003 µM, first compound 0.1 µM
  viability, T/C: 82.3%
Second compound 0.003 µM, first compound 0.316 µM
  viability, T/C: 82.7%
Second compound 0.003 µM, first compound 1 µM
  viability, T/C: 67.4%
Second compound 0.003 µM, first compound 3.16 µM
  viability, T/C: 66.7%
Second compound 0.003 µM, first compound 10 µM
  viability, T/C: 50.1%
Second compound 0.00949 µM, first compound 0.0316 µM
  viability, T/C: 87.1%
Second compound 0.00949 µM, first compound 0.1 µM
  viability, T/C: 89.5%
Second compound 0.00949 µM, first compound 0.316 µM
  viability, T/C: 80.7%
Second compound 0.00949 µM, first compound 1 µM
  viability, T/C: 69%
Second compound 0.00949 µM, first compound 3.16 µM
  viability, T/C: 68%
Second compound 0.00949 µM, first compound 10 µM
  viability, T/C: 48.1%
Second compound 0.03 µM, first compound 0.0316 µM
  viability, T/C: 92.4%
Second compound 0.03 µM, first compound 0.1 µM
  viability, T/C: 83.6%
Second compound 0.03 µM, first compound 0.316 µM
  viability, T/C: 80.7%
Second compound 0.03 µM, first compound 1 µM
  viability, T/C: 69.6%
Second compound 0.03 µM, first compound 3.16 µM
  viability, T/C: 66.3%
Second compound 0.03 µM, first compound 10 µM
  viability, T/C: 44.4%
Second compound 0.0949 µM, first compound 0.0316 µM
  viability, T/C: 95.8%
Second compound 0.0949 µM, first compound 0.1 µM
  viability, T/C: 79.1%
Second compound 0.0949 µM, first compound 0.316 µM
  viability, T/C: 72.3%
Second compound 0.0949 µM, first compound 1 µM
  viability, T/C: 71.4%
Second compound 0.0949 µM, first compound 3.16 µM
  viability, T/C: 62.9%
Second compound 0.0949 µM, first compound 10 µM
  viability, T/C: 50.8%
Second compound 0.3 µM, first compound 0.0316 µM
  viability, T/C: 76.7%
Second compound 0.3 µM, first compound 0.1 µM
  viability, T/C: 71%
Second compound 0.3 µM, first compound 0.316 µM
  viability, T/C: 70.8%
Second compound 0.3 µM, first compound 1 µM
  viability, T/C: 64.9%
Second compound 0.3 µM, first compound 3.16 µM
  viability, T/C: 61.4%
Second compound 0.3 µM, first compound 10 µM
  viability, T/C: 46.6%

## CC1(C)CCC(Nc2ncc(C(F)(F)F)c(-c3c[nH]c4c(P(C)(C)=O)c(C#N)ccc34)n2)CN1 (centres undefined) + C#Cc1c(F)ccc2cc(O)cc(-c3ncc4c(N5CC6CCC(C5)N6)nc(OCC56CCCN5CC(F)C6)nc4c3F)c12
Second compound 0.0316 µM
  pIC50: < 6.52
Second compound 0.1 µM
  pIC50: < 6.52
Second compound 0.316 µM
  pIC50: < 6.52
Second compound 1 µM
  pIC50: < 6.52
Second compound 3.16 µM
  pIC50: < 6.52
Second compound 10 µM
  pIC50: < 6.52
Second compound 0.0316 µM, first compound 0.000949 µM
  viability, T/C: 111%
Second compound 0.0316 µM, first compound 0.003 µM
  viability, T/C: 110%
Second compound 0.0316 µM, first compound 0.00949 µM
  viability, T/C: 112%
Second compound 0.0316 µM, first compound 0.03 µM
  viability, T/C: 94.9%
Second compound 0.0316 µM, first compound 0.0949 µM
  viability, T/C: 118%
Second compound 0.0316 µM, first compound 0.3 µM
  viability, T/C: 97.3%
Second compound 0.1 µM, first compound 0.000949 µM
  viability, T/C: 110%
Second compound 0.1 µM, first compound 0.003 µM
  viability, T/C: 112%
Second compound 0.1 µM, first compound 0.00949 µM
  viability, T/C: 110%
Second compound 0.1 µM, first compound 0.03 µM
  viability, T/C: 101%
Second compound 0.1 µM, first compound 0.0949 µM
  viability, T/C: 116%
Second compound 0.1 µM, first compound 0.3 µM
  viability, T/C: 92.1%
Second compound 0.316 µM, first compound 0.000949 µM
  viability, T/C: 100%
Second compound 0.316 µM, first compound 0.003 µM
  viability, T/C: 100%
Second compound 0.316 µM, first compound 0.00949 µM
  viability, T/C: 91.1%
Second compound 0.316 µM, first compound 0.03 µM
  viability, T/C: 114%
Second compound 0.316 µM, first compound 0.0949 µM
  viability, T/C: 115%
Second compound 0.316 µM, first compound 0.3 µM
  viability, T/C: 92.9%
Second compound 1 µM, first compound 0.000949 µM
  viability, T/C: 97.1%
Second compound 1 µM, first compound 0.003 µM
  viability, T/C: 92%
Second compound 1 µM, first compound 0.00949 µM
  viability, T/C: 80.7%
Second compound 1 µM, first compound 0.03 µM
  viability, T/C: 96.7%
Second compound 1 µM, first compound 0.0949 µM
  viability, T/C: 100%
Second compound 1 µM, first compound 0.3 µM
  viability, T/C: 84.2%
Second compound 3.16 µM, first compound 0.000949 µM
  viability, T/C: 83%
Second compound 3.16 µM, first compound 0.003 µM
  viability, T/C: 78.2%
Second compound 3.16 µM, first compound 0.00949 µM
  viability, T/C: 99.8%
Second compound 3.16 µM, first compound 0.03 µM
  viability, T/C: 99.5%
Second compound 3.16 µM, first compound 0.0949 µM
  viability, T/C: 96.3%
Second compound 3.16 µM, first compound 0.3 µM
  viability, T/C: 77.8%
Second compound 10 µM, first compound 0.000949 µM
  viability, T/C: 70.7%
Second compound 10 µM, first compound 0.003 µM
  viability, T/C: 65.1%
Second compound 10 µM, first compound 0.00949 µM
  viability, T/C: 76.6%
Second compound 10 µM, first compound 0.03 µM
  viability, T/C: 81%
Second compound 10 µM, first compound 0.0949 µM
  viability, T/C: 62.7%
Second compound 10 µM, first compound 0.3 µM
  viability, T/C: 63.4%

Source: PubChem BioAssay AID2060907 (Molecular Pharmacology Branch, DTP, NCI, 2025)
